We go through 15 compounds from US11918592B2, “Inhibitors of cyclin dependent kinase 7 (CDK7)” (Syros Pharmaceuticals, Inc., priority 2018, dated 2024).

The subject of experiment [1] is COV318 cells. The experiment in a line: Inhibition of cell proliferation, CyQUANT Direct, COV318. The following applies: Homo sapiens; COV318 ovarian cancer cells, 72-hour; read-out: COV 318 proliferation calculated IC50. It counts as cell-based. How it is done:
(§1) HCC70 and MB453 cells are cell lines derived from human triple negative breast cancer. COV318 and COV504 cells are cell lines derived from human ovarian cancer. Representative compounds of the invention were tested at different concentrations (from 4 μM to 126.4 pM; 0.5 log serial dilutions) for their ability to inhibit the proliferation of each of these cell lines. Known CDK inhibitors dinaciclib or N-((1S,3R)-3-((5-chloro-4-(1H-indol-3-yl) pyrimidin-2-yl)amino)cyclohexyl)-5-((E)-4-(dimethylamino)but-2-enamido)picolinamide and triptolide were used as positive controls. Cells were seeded at approximately 2,000 cells/well and grown in ATCC-formulated RPMI-1640 Medium (ATCC 30-2001)+10% FBS. The cells were cultured at 37° C. in a humidified chamber in the presence of 5% CO2. Proliferation assays were conducted over a 72-hour time period. CyQUANT® Direct Cell Proliferation Assay (Life Technologies, Chicago, IL USA) was used to assess the anti-proliferative effects of the compounds following manufacturer's directions and utilizing the reagents supplied with the CyQUANT® Direct Cell kit.

The subject of experiment [2] is COV504 cells. As to the kind of experiment: Inhibition of cell proliferation, CyQUANT Direct, COV504. It counts as cell-based. The following applies: Homo sapiens; COV504 ovarian cancer cells, 72-hour; read-out: COV 504 proliferation calculated IC50. As for the experimental part: as §1
Experiment [3] deals with CDK12 (aa686-1082)/Cyclin K complex (Homo sapiens, UniProt Q9NYV4). The experiment in a line: CDK12 kinase inhibition assay (Caliper/LabChip EZ Reader).
The test system of experiment [4] is HCC70 cells. As to the kind of experiment: Inhibition of cell proliferation, CyQUANT Direct, HCC70. The experiment is classed as cell-based, human. The note with it: HCC70 triple negative breast cancer cells, 72-hour, read-out: HCC 70 proliferation calculated IC50. How it is done: as §1
Experiment [5] addresses CDK9/Cyclin T1 complex (Homo sapiens, UniProt P50750). As to the kind of experiment: CDK9 kinase inhibition assay (Caliper/LabChip EZ Reader).
Experiment [6] concerns MB453 cells. The experiment in a line: Inhibition of cell proliferation, CyQUANT Direct, MB453. It counts as cell-based, human. The note with it: MB453 triple negative breast cancer cells, 72-hour, read-out: MB 453 proliferation calculated IC50. As for the experimental part: as §1
For experiment [7], the target named is CDK2/Cyclin E1 complex (Homo sapiens, UniProt P24941). The experiment in a line: CDK2 kinase inhibition assay (Caliper/LabChip EZ Reader).
Experiment [8] deals with CDK7/Cyclin H/MAT1 complex (Homo sapiens, UniProt P50613). As to the kind of experiment: CDK7 kinase inhibition assay (Caliper/LabChip EZ Reader).
Description: Compounds of the invention were assayed for inhibition of CDK7, CDK9, CDK12, and CDK2 activity at Biortus Biosciences (Jiangyin, Jiangsu Province, P.R. of China) using kinase assays for each CDK developed with a Caliper/LabChip EZ Reader (Perkin Elmer, Waltham, MA).
Furthermore, the CDK9 inhibition assay used CDK9/Cyclin T1 complex (8 nM) and “5-FAM-CDK9tide” peptide substrate (2 μM, synthesized fluorophore-labeled peptide with the following sequence: 5-FAM-GSRTPMY-NH2 (SEQ ID NO:2) where 5-FAM is defined above and NH2 signifies a C-terminal amide) with 10 mM MgCl2 in the buffer composition listed above. The CDK12 inhibition assay used CDK12 (aa686-1082)/Cyclin K complex (50 nM) and “5-FAM-CDK9tide” (2 μM) as defined above, with 2 mM MgCl2 in the buffer composition above. Additionally, the CDK2 inhibition assay used CDK2/Cyclin E1 complex (0.5 nM) and “5-FAM-CDK7tide” (2 μM) as defined above, with 2 mM MgCl2 in the buffer composition listed above.
The incubation period at 27° C. for each CDK inhibition assay was chosen such that the fraction of phosphorylated peptide product produced in each assay, relative to the total peptide concentration, was approximately 20% (±5%) for the uninhibited kinase (35 min. for CDK7, 35 min. for CDK2, 3 hr. for CDK12, 15 min. for CDK9).

Each structure is given as a SMILES string. Read-outs that look alike come from different tables or passages of the source.

Chain of CDK9/Cyclin T1 complex (P50750 whole entry): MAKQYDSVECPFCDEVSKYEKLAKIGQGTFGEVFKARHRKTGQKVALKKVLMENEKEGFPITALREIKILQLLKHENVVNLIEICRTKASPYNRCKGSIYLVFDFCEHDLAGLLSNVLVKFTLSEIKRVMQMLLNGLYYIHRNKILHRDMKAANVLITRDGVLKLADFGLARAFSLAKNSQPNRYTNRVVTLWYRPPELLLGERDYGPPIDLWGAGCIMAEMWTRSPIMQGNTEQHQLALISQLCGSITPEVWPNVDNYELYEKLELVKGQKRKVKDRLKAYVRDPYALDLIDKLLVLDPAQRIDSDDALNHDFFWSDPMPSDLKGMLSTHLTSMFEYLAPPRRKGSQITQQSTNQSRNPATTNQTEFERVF
Chain of CDK9/Cyclin T1 complex (O60563 whole entry partner): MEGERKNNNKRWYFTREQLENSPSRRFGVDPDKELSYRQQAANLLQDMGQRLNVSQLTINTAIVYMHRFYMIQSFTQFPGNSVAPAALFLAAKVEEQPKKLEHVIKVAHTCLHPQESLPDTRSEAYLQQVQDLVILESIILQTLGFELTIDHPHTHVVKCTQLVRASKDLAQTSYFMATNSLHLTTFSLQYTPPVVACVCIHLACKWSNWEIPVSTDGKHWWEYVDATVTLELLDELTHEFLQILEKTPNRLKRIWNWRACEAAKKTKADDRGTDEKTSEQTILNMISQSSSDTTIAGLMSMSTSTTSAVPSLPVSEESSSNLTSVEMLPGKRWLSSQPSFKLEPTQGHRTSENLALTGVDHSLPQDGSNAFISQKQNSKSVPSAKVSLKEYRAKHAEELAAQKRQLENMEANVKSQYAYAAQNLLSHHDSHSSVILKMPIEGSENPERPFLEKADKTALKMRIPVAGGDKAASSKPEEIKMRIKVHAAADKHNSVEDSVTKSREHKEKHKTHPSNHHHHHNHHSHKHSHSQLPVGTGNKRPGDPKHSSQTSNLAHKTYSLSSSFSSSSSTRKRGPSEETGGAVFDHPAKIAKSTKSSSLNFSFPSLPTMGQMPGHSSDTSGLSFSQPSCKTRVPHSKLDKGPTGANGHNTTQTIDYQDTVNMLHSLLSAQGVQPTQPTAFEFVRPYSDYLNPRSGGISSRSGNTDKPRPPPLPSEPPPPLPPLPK
Chain of CDK7/Cyclin H/MAT1 complex (P50613 whole entry): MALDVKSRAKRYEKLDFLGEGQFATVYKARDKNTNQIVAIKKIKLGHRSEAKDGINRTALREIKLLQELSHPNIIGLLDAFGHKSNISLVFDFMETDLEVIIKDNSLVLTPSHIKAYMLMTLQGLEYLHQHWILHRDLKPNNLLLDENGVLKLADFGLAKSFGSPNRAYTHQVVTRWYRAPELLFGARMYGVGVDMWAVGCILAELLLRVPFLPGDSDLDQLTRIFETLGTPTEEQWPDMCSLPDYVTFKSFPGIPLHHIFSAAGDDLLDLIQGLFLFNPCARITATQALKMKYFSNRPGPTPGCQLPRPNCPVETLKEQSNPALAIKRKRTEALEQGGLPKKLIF
Chain of CDK7/Cyclin H/MAT1 complex (P51946 whole entry partner): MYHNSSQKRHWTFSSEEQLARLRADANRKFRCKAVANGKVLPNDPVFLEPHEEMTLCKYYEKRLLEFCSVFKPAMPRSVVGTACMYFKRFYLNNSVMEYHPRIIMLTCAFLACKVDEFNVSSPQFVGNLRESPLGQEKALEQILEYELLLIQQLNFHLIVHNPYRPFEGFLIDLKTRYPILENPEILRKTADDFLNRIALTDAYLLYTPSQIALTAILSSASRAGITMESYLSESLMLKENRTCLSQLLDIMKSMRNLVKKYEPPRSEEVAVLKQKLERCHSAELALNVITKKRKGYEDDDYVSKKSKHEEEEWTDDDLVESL
Chain of CDK7/Cyclin H/MAT1 complex (P51948 whole entry partner): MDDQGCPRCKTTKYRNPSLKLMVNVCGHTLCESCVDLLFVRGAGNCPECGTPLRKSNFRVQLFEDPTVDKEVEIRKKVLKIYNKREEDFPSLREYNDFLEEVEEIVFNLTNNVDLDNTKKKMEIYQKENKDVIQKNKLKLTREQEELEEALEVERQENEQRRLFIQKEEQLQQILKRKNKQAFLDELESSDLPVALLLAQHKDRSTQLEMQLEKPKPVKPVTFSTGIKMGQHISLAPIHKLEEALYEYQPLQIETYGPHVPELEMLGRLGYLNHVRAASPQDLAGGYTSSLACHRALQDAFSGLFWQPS
Chain of CDK12 (aa686-1082)/Cyclin K complex (Q9NYV4 686-1082): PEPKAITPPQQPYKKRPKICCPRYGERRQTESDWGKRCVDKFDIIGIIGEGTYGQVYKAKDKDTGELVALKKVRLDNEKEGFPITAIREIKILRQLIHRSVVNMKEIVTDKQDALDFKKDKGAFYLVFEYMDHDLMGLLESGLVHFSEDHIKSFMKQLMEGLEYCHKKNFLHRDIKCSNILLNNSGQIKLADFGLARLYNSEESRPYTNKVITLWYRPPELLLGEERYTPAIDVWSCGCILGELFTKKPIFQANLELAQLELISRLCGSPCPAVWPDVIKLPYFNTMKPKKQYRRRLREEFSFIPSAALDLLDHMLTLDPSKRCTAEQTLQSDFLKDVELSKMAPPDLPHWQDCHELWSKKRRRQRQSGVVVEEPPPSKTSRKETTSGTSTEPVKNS
Chain of CDK12 (aa686-1082)/Cyclin K complex (O75909 whole entry partner, the tested form may be a part): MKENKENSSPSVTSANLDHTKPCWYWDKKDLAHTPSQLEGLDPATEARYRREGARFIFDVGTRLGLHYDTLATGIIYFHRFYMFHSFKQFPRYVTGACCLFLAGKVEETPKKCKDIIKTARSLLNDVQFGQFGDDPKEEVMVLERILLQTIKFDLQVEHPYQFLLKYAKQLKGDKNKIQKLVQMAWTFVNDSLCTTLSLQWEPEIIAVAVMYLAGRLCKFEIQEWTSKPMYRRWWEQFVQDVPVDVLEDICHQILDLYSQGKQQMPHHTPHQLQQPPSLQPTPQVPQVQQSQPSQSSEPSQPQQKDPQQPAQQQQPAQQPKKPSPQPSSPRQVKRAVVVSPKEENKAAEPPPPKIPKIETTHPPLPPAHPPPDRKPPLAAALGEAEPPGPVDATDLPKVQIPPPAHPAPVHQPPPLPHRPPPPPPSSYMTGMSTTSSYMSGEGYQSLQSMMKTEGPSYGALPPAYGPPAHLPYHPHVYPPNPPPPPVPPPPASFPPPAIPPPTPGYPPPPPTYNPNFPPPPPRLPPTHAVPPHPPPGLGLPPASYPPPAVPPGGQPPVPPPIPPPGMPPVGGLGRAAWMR

As to `Cc1noc(C)c1-c1ccc2c(-c3nc(N[C@H]4CCC[C@@H]4NCC(F)F)ncc3C(F)(F)F)c[nH]c2n1` [Compound 147, (1S, 2S)—N2-(2,2-difluoroethyl)-N1-[4-[6-(3,5-dimethylisoxazol-4-yl)-1H-pyrrolo[2,3-b]pyridin-3-yl]-5-(trifluoromethyl)pyrimidin-2-yl] cyclopentane-1,2-diamine], the IC50 in experiment [1] was above 2 µM; in experiment [2], 0.1 to 0.5 µM; in experiment [3], above 0.5 µM; in experiment [4] (Homo sapiens), 0.5 to 2 µM; in experiment [5], above 0.5 µM; in experiment [6] (Homo sapiens), 0.1 to 0.5 µM. The IC50 in experiment [7] is above 0.5 µM; in experiment [8], below 0.03 µM.
In the case of `COCCN[C@H]1CC[C@@H]1Nc1ncc(C(F)(F)F)c(-c2c[nH]c3cc(C#N)ccc23)n1` [Compound 133], the IC50 is 0.5 to 2 µM in experiment [1]; 0.5 to 2 µM in experiment [2]; above 0.5 µM in experiment [3]; 0.5 to 2 µM in experiment [4] (Homo sapiens); above 0.5 µM in experiment [5]; 0.5 to 2 µM in experiment [6] (Homo sapiens). The IC50 in experiment [7] was above 0.5 µM; in experiment [8] it was 0.03 to 0.1 µM.
Consider `N[C@H]1CCC[C@@H]1Nc1ncc(C(F)(F)F)c(-c2c[nH]c3c(Cl)c(O)ccc23)n1` [Compound 168, 3-[2-[[(1S,2S)-2-aminocyclopentyl]amino]-5-(trifluoromethyl)pyrimidin-4-yl]-7-chloro-1H-indol-6-ol], for which the IC50 in experiment [1] was 0.1 to 0.5 µM; in experiment [2], below 0.1 µM; in experiment [3], above 0.5 µM; in experiment [4] (Homo sapiens), 0.1 to 0.5 µM; in experiment [5], above 0.5 µM; in experiment [6] (Homo sapiens), below 0.1 µM. Further, the IC50 in experiment [7] is above 0.5 µM; in experiment [8] it was below 0.03 µM.
Take `Cc1noc(C)c1-c1ccc2c(-c3nc(N[C@H]4CCCC4N4CCCC4)ncc3C(F)(F)F)c[nH]c2n1` (stereo partly drawn) [Compound 144, 4-[6-(3,5-dimethylisoxazol-4-yl)-1H-pyrrolo[2,3-b]pyridin-3-yl]-N-[(1S)-2-pyrrolidin-1-ylcyclopentyl]-5-(trifluoromethyl) pyrimidin-2-amine]: the IC50 was below 0.1 µM in experiment [1]; below 0.1 µM in experiment [2]; above 0.5 µM in experiment [3]; 0.1 to 0.5 µM in experiment [4] (Homo sapiens); above 0.5 µM in experiment [5]; below 0.1 µM in experiment [6] (Homo sapiens). Further, the IC50 in experiment [7] was above 0.5 µM; in experiment [8], below 0.03 µM.
With `Cc1noc(C)c1-c1ccc2c(-c3nc(N[C@H]4CCC[C@H]4N4CC(F)(F)C4)ncc3C(F)(F)F)c[nH]c2n1` [Compound 167, N-[(1S,2R)-2-(3,3-difluoroazetidin-1-yl)cyclopentyl]-4-[6-(3,5-dimethylisoxazol-4-yl)-1H-pyrrolo[2,3-b]pyridin-3-yl]-5-(trifluoromethyl)pyrimidin-2-amine], the IC50 is above 2 µM in experiment [1]; above 2 µM in experiment [2]; above 0.5 µM in experiment [3]; above 2 µM in experiment [4] (Homo sapiens); above 0.5 µM in experiment [5]; above 2 µM in experiment [6] (Homo sapiens). The IC50 in experiment [7] and in experiment [8] was above 0.5 µM each time.
Regarding `CN(C)[C@H]1CC[C@@H]1Nc1ncc(C(F)(F)F)c(-c2c[nH]c3cc(C#N)ccc23)n1` [Compound 126, 3-[2-[[(1S,2S)-2-(dimethylamino)cyclobutyl]-amino]-5-(trifluoromethyl)pyrimidin-4-yl]-1H-indole-6-carbonitrile], the IC50 in experiment [1] is above 2 µM; in experiment [2], 0.1 to 0.5 µM; in experiment [3] it was above 0.5 µM; in experiment [4] (Homo sapiens) it was above 2 µM; in experiment [5], above 0.5 µM; in experiment [6] (Homo sapiens), 0.1 to 0.5 µM. Besides, the figures for the IC50 in experiment [7] and in experiment [8] were above 0.5 µM and 0.03 to 0.1 µM, respectively.
On to `Cc1noc(C)c1-c1ccc2c(-c3nc(N[C@H]4CCC[C@H]4N4CC(O)C4)ncc3C(F)(F)F)c[nH]c2n1` [Compound 163, 1-[(1R,2S)-2-[[4-[6-(3,5-dimethylisoxazol-4-yl)-1H-pyrrolo[2,3-b]pyridin-3-yl]-5-(trifluoromethyl)pyrimidin-2-yl]amino]cyclopentyl]azetidin-3-ol], for which the IC50 was above 2 µM in experiment [1]; above 2 µM in experiment [2]; above 0.5 µM in experiment [3]; above 2 µM in experiment [4] (Homo sapiens); above 0.5 µM in experiment [5]; 0.5 to 2 µM in experiment [6] (Homo sapiens). Besides, the values for the IC50 in experiment [7] and in experiment [8] were above 0.5 µM and 0.03 to 0.1 µM, respectively.
Turning to `Cc1noc(C)c1-c1ccc2c(-c3nc(NC4CCCC4N)ncc3C(F)(F)F)c[nH]c2n1` (centres unmarked) [Compound 127], the IC50 was 0.1 to 0.5 µM in experiment [1]; below 0.1 µM in experiment [2]; above 0.5 µM in experiment [3]; below 0.1 µM in experiment [4] (Homo sapiens); above 0.5 µM in experiment [5]; below 0.1 µM in experiment [6] (Homo sapiens). Moreover, the IC50 in experiment [7] is above 0.5 µM; in experiment [8], below 0.03 µM.
For `Cc1noc(C)c1-c1ccc2c(-c3nc(N[C@H]4C[C@H]5CC[N@](CC5)C4)ncc3C(F)(F)F)c[nH]c2n1` [Compound 141, (3S)—N-[4-[6-(3,5-dimethylisoxazol-4-yl)-1H-pyrrolo[2,3-b]pyridin-3-yl]-5-(trifluoromethyl)pyrimidin-2-yl]-1-azabicyclo[3.2.2]nonan-3-amine], the IC50 in experiment [1] was below 0.1 µM; in experiment [2] it was below 0.1 µM; in experiment [3], above 0.5 µM; in experiment [4] (Homo sapiens), below 0.1 µM; in experiment [5], above 0.5 µM; in experiment [6] (Homo sapiens), below 0.1 µM. In addition, the figures for the IC50 in experiment [7] and in experiment [8] were above 0.5 µM and below 0.03 µM, respectively.
With `Cc1noc(C)c1-c1ccc2c(-c3nc(N[C@H]4CC[C@@H]4N)ncc3C(F)(F)F)c[nH]c2n1` [Compound 129, (1S,2S)—N2-[4-[6-(3,5-dimethylisoxazol-4-yl)-1H-pyrrolo[2,3-b]pyridin-3-yl]-5-(trifluoromethyl)pyrimidin-2-yl]-cyclobutane-1,2-diamine], the IC50 in experiment [1] is 0.1 to 0.5 µM; in experiment [2], below 0.1 µM; in experiment [3], above 0.5 µM; in experiment [4] (Homo sapiens), 0.1 to 0.5 µM; in experiment [5], above 0.5 µM; in experiment [6] (Homo sapiens) it was below 0.1 µM. Besides, the IC50 in experiment [7] was above 0.5 µM; in experiment [8], below 0.03 µM.
Turning to `N#Cc1ccc2c(-c3nc(N[C@@H]4CC[C@H]4N4CCCC4)ncc3C(F)(F)F)c[nH]c2c1` [Compound 136, 3-[2-[[(1R,2R)-2-pyrrolidin-1-ylcyclobutyl]-amino]-5-(trifluoromethyl)pyrimidin-4-yl]-1H-indole-6-carbonitrile], the IC50 was above 0.5 µM in experiment [3], above 0.5 µM in experiment [5], above 0.5 µM in experiment [7] and 0.1 to 0.5 µM in experiment [8].
As for `CP(C)(=O)c1c(C(N)=O)ccc2c(-c3nc(N[C@H]4CCC[C@@H]4N)ncc3C(F)(F)F)c[nH]c12` [Compound 162, 3-[2-[[(1S,2S)-2-aminocyclopentyl]amino]-5(trifluoromethyl)pyrimidin-4-yl]-7-dimethylphosphoryl-1H-indole-6-carboxamide], the IC50 is above 0.5 µM in experiment [5], above 0.5 µM in experiment [7] and below 0.03 µM in experiment [8].
Turning to `Cc1noc(C)c1-c1ccc2c(-c3nc(N[C@@H]4C[C@H]5CC[C@@H]4N5)ncc3C(F)(F)F)c[nH]c2c1` [Compound 138, (1R,2R,4S)—N-[4-[6-(3,5-dimethylisoxazol-4-yl)-1H-indol-3-yl]-5-(trifluoromethyl)pyrimidin-2-yl]-7-azabicyclo-[2.2.1]-heptan-3-amine], the IC50 was above 0.5 µM in experiment [3] (read-out: CDK 12 calculated IC50, ATP 2 mM, 27° C., 3 hr incubation, 2 mM MgCl2); 0.1 to 0.5 µM in experiment [4]; above 0.5 µM in experiment [5] (read-out: CDK 9 calculated IC50, ATP 2 mM, 27° C., 15 min incubation, 10 mM MgCl2); 0.1 to 0.5 µM in experiment [6]; above 0.5 µM in experiment [7] (read-out: CDK 2 calculated IC50, ATP 2 mM, 27° C., 35 min incubation, 2 mM MgCl2); 0.03 to 0.1 µM in experiment [8] (read-out: CDK 7 calculated IC50, ATP 2 mM, 27° C., 35 min incubation, 6 mM MgCl2).
Take `COC1CCN([C@H]2CCC[C@@H]2Nc2ncc(C(F)(F)F)c(-c3c[nH]c4nc(-c5c(C)noc5C)ccc34)n2)C1` (some centres unmarked) [Compound 153]: the IC50 in experiment [1] is above 2 µM; in experiment [2], 0.1 to 0.5 µM; in experiment [4] (Homo sapiens) it was 0.1 to 0.5 µM; in experiment [6] (Homo sapiens), 0.5 to 2 µM.
With `COCCN[C@@H]1CC[C@H]1Nc1ncc(C(F)(F)F)c(-c2c[nH]c3cc(C#N)ccc23)n1` [Compound 134], the IC50 in experiment [3], in experiment [5], in experiment [7] and in experiment [8] was above 0.5 µM in each case.
